Drawing on patent US7834024B2, “Compositions and methods for inhibition of the JAK pathway” (Rigel Pharmaceuticals, Inc., priority 2007, dated 2010), this text covers IC50 for 25 molecules.

The subject of the first test is Ramos B-Cell Line Stimulated with IL-4 (JAK-1 and JAK-3 / Stat-6, CD23). As to the kind of experiment: Assay for Ramos B-Cell Line Stimulated with IL-4 (CD23 upregulation, FACS). The format is cell-based. The conditions noted are these: Homo sapiens, Ramos, human Ramos B cells, compound 1 hour, IL-4 50 units/mL for 20-24 hours, anti-CD23-PE FACS; read-out: Example 2 (IC50). From the text:
One means of assaying for such inhibition is detection of the effect of the 2,4-pyrimidinediamine compounds on the upregulation of downstream gene products. In the Ramos/IL4 assay, B-cells are stimulated with the cytokine Interleukin-4 (IL-4) leading to the activation of the JAK/Stat pathway through phosphorylation of the JAK family kinases, JAK1 and JAK3, which in turn phosphorylate and activate the transcription factor Stat-6. […] To study the effect of inhibitors (e.g., the 2,4-substituted pyrimindinediamine compounds described herein) on the JAK1 and JAK3 kinases, human Ramos B cells are stimulated with human IL-4. 20 to 24 hours post stimulation, cells are stained for upregulation of CD23 and analyzed using flow cytometry (FACS).
B-cells stimulated with cytokine Interleukin-4 (IL-4) activate the JAK/Stat pathway through phosphorylation of the JAK family kinases, JAK-1 and JAK-3, which in turn phosphorylate and activate the transcription factor Stat-6. […] To study the effect of inhibitors on the JAK family kinases, human Ramos B cells were stimulated with human IL-4.
Cells were maintained at a density of 3.5×10^5. The day before the experiment, Ramos B-cells were diluted to 3.5×10^5 cells/mL to ensure that they were in a logarithmic growth phase.
Cells were spun down and suspended in RPMI with 5% serum. 5×10^4 cells were used per point in a 96-well tissue culture plate. Cells were pre-incubated with compound or DMSO (Sigma-Aldrich, St. Louis, Mo., Cat No. D2650) vehicle control for 1 hour in a 37° C. incubator. Cells were then stimulated with IL-4 (Peprotech Inc., Rocky Hill, N.J., Cat No. 200-04) for a final concentration of 50 units/mL for 20-24 hours. […] Detection was performed using a BD LSR I System Flow Cytometer, purchased from Becton Dickinson Biosciences of San Jose, Calif.
With `N#CCOc1ccc(Nc2nc(Nc3cccc(C#N)c3)ncc2F)cc1` [Compound I-30, N4-(4-Cyanomethoxyphenyl)-N2-(3-cyanophenyl)-5-fluoro-2,4-pyrimidinediamine], the IC50 amounted to 71 nM.
Consider `N#CCOc1ccc(Nc2nc(Nc3ccc(C(N)=O)cc3)ncc2F)cc1F` [Compound I-101, N2-(4-Aminocarbonylphenyl)-N4-(4-cyanomethoxy-3-fluorophenyl)-5-fluoro-2,4-pyrimidinediamine], for which the concentration for half-maximal inhibition (IC50) stood at 33.7 nM.
Still for that read-out and setting: the same measure for `CN1CCN(c2ccc(Nc3ncc(F)c(Nc4ccc(OCC(N)=O)cc4)n3)cc2C(N)=O)CC1` [Compound I-38, N2-[3-Aminocarbonyl-4-(4-methylpiperazin-1-yl)phenyl]-N4-(4-aminocarbonylmethoxyphenyl)-5-fluoro-2,4-pyrimidinediamine]: 533 nM; for `CNC(=O)c1cc(Nc2ncc(F)c(Nc3ccc(OCc4noc(C)n4)cc3)n2)ccc1N1CCN(C)CC1` [Compound I-63, 5-Fluoro-N2-[3-methylaminocarbonyl-4-(4-methylpiperazin-1-yl)phenyl]-N4-[4-((5-methyl-1,2,4-oxadiazol-3-yl)methoxy)phenyl]-2,4-pyrimidinediamine]: 265 nM; for `N#CCOc1cccc(Nc2nc(Nc3ccc(CC#N)cc3)ncc2F)c1` [Compound I-66, N4-(3-Cyanomethoxyphenyl)-N2-(4-cyanomethylphenyl)-5-fluoro-2,4-pyrimidinediamine]: 42.2 nM.
On the same count and under the same terms, with `CNC(=O)c1cc(Nc2ncc(F)c(Nc3ccc(OCC(N)=O)cc3)n2)ccc1N1CCN(C)CC1` [Compound I-39, N4-(4-Aminocarbonylmethoxyphenyl)-5-fluoro-N2-[3-methylaminocarbonyl-4-(4-methylpiperazin-1-yl)phenyl]-2,4-pyrimidinediamine] the figure was 431 nM; with `C#CCOc1ccc(Nc2nc(Nc3cccc(C(N)=S)c3)ncc2F)cc1` [Compound I-5, N2-(3-Aminocarbonothioylphenyl)-5-fluoro-N4-[4-(2-propynyloxy)phenyl]-2,4-pyrimidinediamine], 1150 nM; with `N#CCOc1cccc(Nc2nc(Nc3cccc(C#N)c3)ncc2F)c1` [Compound I-47, N4-(3-Cyanomethoxyphenyl)-N2-(3-cyanophenyl)-5-fluoro-2,4-pyrimidinediamine], 173 nM.
The same measure, in the same setting: with `Cc1cnc(Nc2cnc3c(c2)OCC(=O)N3)nc1Nc1cnc2c(c1)OCC(=O)N2` [VII-3, N4,N2-Bis(3-oxo[4H]-5-pyrido[1,4]oxazin-7-yl)-5-methyl-2,4-pyrimidinediamine] the figure was 195 nM; with `CC1(C)Oc2ccc(Nc3nc(Nc4ccc5oc(C(=O)NCCN6CCOCC6)cc5c4)ncc3F)nc2NC1=O` [Compound V-1, N4-[2,2-Dimethyl-3-oxo-4H-5-pyrido[1,4]oxazin-6-yl]-5-fluoro-N2-[2-(2-(N-morpholinyl)ethylaminocarbonyl)benzofuran-5-yl]-2,4-pyrimidinediamine], 144 nM; with `CCc1cc(Nc2ncc(F)c(Nc3ccc4c(c3)NC(=O)C(C)(C)O4)n2)cc(C#N)c1Cl` [II-25, N2-(4-Chloro-3-cyano-5-ethylphenyl)-N4-(2,2-dimethyl-3-oxo-4H-benzo[1,4]oxazin-6-yl)-5-fluoro-2,4-pyrimidinediamine], 1430 nM.
As for `Cc1cc(Nc2nc(Nc3ccc(CC#N)cc3)ncc2F)ccc1OC(C)C#N` (stereo not shown) [Compound I-94, N4-[4-(1-Cyanoethoxy)-3-methylphenyl]-N2-(4-cyanomethylphenyl)-5-fluoro-2,4-pyrimidinediamine], the IC50 was determined as 381 nM.
As for `NC(=O)c1ccc(Nc2ncc(F)c(Nc3cccc(-c4ncco4)c3)n2)cc1Cl` [Compound I-14, N2-(4-Aminocarbonyl-3-chlorophenyl)-5-fluoro-N4-[3-(oxazol-2-yl)phenyl]-2,4-pyrimidinediamine], the IC50 turned out to be 178 nM.
Still for that read-out and setting: with `Cc1nc(COc2ccc(Nc3nc(Nc4cccc(C#N)c4)ncc3F)cc2)no1` [Compound I-59, N2-(3-Cyanophenyl)-5-fluoro-N4-[4-((5-methyl-1,2,4-oxadiazol-3-yl)methoxy)phenyl]-2,4-pyrimidinediamine] the figure was 596 nM; with `Cc1noc(CCCc2ccc(Nc3nc(Nc4cccc(C#N)c4)ncc3F)cc2)n1` [Compound I-114, N2-(3-Cyanophenyl)-5-fluoro-N4-[4-(3-(3-methyl-1,2,4-oxadiazol-5-yl)propyl)phenyl]-2,4-pyrimidinediamine], 1750 nM; with `N#CCc1ccc(Nc2ncc(F)c(Nc3ccc(CC#N)cc3)n2)cc1` [Compound I-71, N2,N4-Bis(4-cyanomethylphenyl)-5-fluoro-2,4-pyrimidinediamine], 195 nM.

Still in this test, the particulars now being: human Ramos B cells, compound 1 hour, IL-4 50 units/mL for 20-24 hours, anti-CD23-PE FACS; read-out: Example 2 (IC50).
For `CNC(=O)COc1cccc(Nc2ncc(F)c(Nc3cc(OC)c(OC)c(OCC#N)c3)n2)c1` [Compound I-109, N4-(3-Cyanomethoxy-4,5-dimethoxyphenyl)-5-fluoro-N2-[3-(N-methylaminocarbonylmethyleneoxy)phenyl]-2,4-pyrimidinediamine], the concentration for half-maximal inhibition (IC50) came out at 660 nM.
In the case of `CNC(=O)COc1cccc(Nc2ncc(F)c(Nc3ccc(Cc4ccncc4)cc3)n2)c1` [Compound I-132, 5-Fluoro-N2-[3-(N-methylaminocarbonylmethyleneoxy)phenyl]-N4-[4-(4-pyridinylmethyl)phenyl]-2,4-pyrimidinediamine], the IC50 stood at 322 nM.
For `CN1CCN(C(=O)c2ccc(Nc3ncc(F)c(Nc4ccc(CC#N)cc4)n3)cc2)CC1` [Compound I-72, N4-(4-Cyanomethylphenyl)-5-fluoro-N2-[4-((4-methylpiperazin-1-yl)carbonyl)phenyl]-2,4-pyrimidinediamine], the IC50 was found to be 599 nM.
Turning to `CCN(CC)CCNC(=O)c1ccc(Nc2ncc(F)c(Nc3ccc(OCc4cc(C)on4)cc3)n2)cc1` [Compound I-127, N2-[4-(2-(N,N-Diethylamino)ethylaminocarbonyl)phenyl]-5-fluoro-N4-[4-((5-methylisoxazol-3-yl)methyleneoxy)phenyl]-2,4-pyrimidinediamine], the IC50 was 9.33 nM.
Take “N4-(4-(1-Cyanoethoxy)-3,5-dimethyl phenyl]-5-fluoro-N2-[4-((4-methylpiperazin-1-yl)carbonyl)phenyl]-2,4-pyrimidinediamine [Compound I-98]”: the IC50 was 276 nM.
As for “N2-[2,3-Dihydro-1-(2-(N-morpholinyl)ethylaminocarbonyl)-1H-indol-6-yl]-N4-[4-(2-propynyloxy)phenyl]-2,4-pyrimidinediamine [VI-1]”, the IC50 was found to be 1010 nM.
Turning to `CCn1nccc1NC(=O)c1ccc(Nc2ncc(F)c(Nc3ccc(OC)c(Cl)c3)n2)cc1` [Compound I-3, N4-(3-Chloro-4-methoxyphenyl)-N2-[4-((I-ethyl-1H-pyrazol-5-yl)aminocarbonyl)phenyl]-5-fluoro-2,4-pyrimidinediamine], the IC50 stood at 119 nM.
Take `CNC(=O)COc1cc(Nc2ncc(F)c(Nc3ccc4c(c3)NC(=O)C(F)(F)O4)n2)cc(OC)c1OC` [II-20, N4-(2,2-Difluoro-3-oxo-4H-benzo[1,4]oxazin-6-yl)-N2-[4,5-Dimethoxy-3-(N-methylaminocarbonylmethyleneoxy)phenyl]-5-fluoro-2,4-pyrimidinediamine]: the IC50 is 480 nM.
As for `Cc1noc(COc2cccc(Nc3nc(Nc4ccc(CC#N)cc4)ncc3F)c2)n1` [Compound I-129, N2-(4-Cyanomethylphenyl)-5-fluoro-N4-[3-((3-methyl-1,2,4-oxadiazol-5-yl)methyleneoxy)phenyl]-2,4-pyrimidinediamine], the IC50 is 1290 nM.
